The source made the active and inactive calls. How the calls were made is not given here.
Biological target: not listed separately
Experiment: V-ATPase inhibitors raising yeast vacuolar pH, dose response, S. cerevisiae, BCECF dye, powder sets 2-3 (AID 651731)
Settings: S. cerevisiae vacuolar pH, BCECF fluorescence; at 100 µM (top of the series)

Row | response (vacuolar pH increase) | SMILES
1 | inactive | O=C(c1cccc(Br)n1)N1CCN(c2nc3ccc(F)cc3s2)CC1
2 | inactive | CC(C)(C)c1ccc(C(=O)Nc2ccccc2N2CCOCC2)o1
3 | inactive | CN(C)Cc1cccc(C(=O)Nc2ccccc2N2CCOCC2)c1
4 | inactive | CS(=O)(=O)Cc1cccc(C(=O)N2CCN(c3nc4ccc(F)cc4s3)CC2)c1
5 | inactive | CN(C)S(=O)(=O)c1cccc(C(=O)Nc2ccccc2N2CCOCC2)c1
6 | inactive | Cc1cccc(C(=O)N2CCN(c3nc4ccc(F)cc4s3)CC2)n1
7 | inactive | NC(=O)c1cccc(C(=O)N2CCN(c3nc4ccc(F)cc4s3)CC2)c1
8 | inactive | COCc1ccc(C(=O)N2CCN(c3nc4ccc(F)cc4s3)CC2)o1
9 | inactive | O=C(c1ccc(-c2ccccc2)o1)N1CCN(c2nc3ccc(F)cc3s2)CC1
10 | inactive | N#Cc1cccc(C(=O)Nc2ccccc2N2CCOCC2)c1
11 | inactive | Cc1ccnc(C(=O)Nc2ccccc2N2CCOCC2)c1
12 | inactive | CN(C)C(=O)c1cccc(C(=O)N2CCN(c3nc4ccc(F)cc4s3)CC2)c1
13 | inactive | Cc1cncc(C(=O)Nc2ccccc2N2CCOCC2)n1
14 | inactive | O=C(Nc1ccccc1N1CCOCC1)c1ccc(C(F)(F)F)o1
15 | inactive | NC(=O)c1cccc(C(=O)Nc2ccccc2N2CCOCC2)c1
16 | inactive | O=C(c1cc(C(F)(F)F)ccn1)N1CCN(c2nc3ccc(F)cc3s2)CC1
17 | inactive | O=C(c1cncc(Cl)n1)N1CCN(c2nc3ccc(F)cc3s2)CC1
18 | inactive | O=C(Nc1ccccc1N1CCOCC1)c1cc(Cl)ccn1
19 | inactive | CN(C)C(=O)c1cccc(C(=O)Nc2ccccc2N2CCOCC2)c1
20 | inactive | COCc1ccc(C(=O)Nc2ccccc2N2CCOCC2)o1

Row | response (vacuolar pH increase) | SMILES
21 | inactive | Cc1cccc(C(=O)Nc2ccccc2N2CCOCC2)n1
22 | inactive | COCc1cccc(C(=O)N2CCN(c3nc4ccc(F)cc4s3)CC2)c1
23 | inactive | O=C(Nc1ccccc1N1CCOCC1)c1cccc(C(F)(F)F)c1
24 | inactive | CN(C)Cc1ccc(C(=O)Nc2ccccc2N2CCOCC2)o1
25 | inactive | O=C(c1ccc(Br)o1)N1CCN(c2nc3ccc(F)cc3s2)CC1
26 | inactive | N#Cc1ccnc(C(=O)Nc2ccccc2N2CCOCC2)c1
27 | inactive | CC(C)(C)c1ccc(C(=O)N2CCN(c3nc4ccc(F)cc4s3)CC2)o1
28 | inactive | COCc1cccc(C(=O)Nc2ccccc2N2CCOCC2)c1
29 | inactive | Nc1ncc(C(=O)N2CCN(c3nc4ccc(F)cc4s3)CC2)o1
30 | inactive | Cc1cncc(C(=O)N2CCN(c3nc4ccc(F)cc4s3)CC2)n1
31 | inactive | CN(C)S(=O)(=O)c1cccc(C(=O)N2CCN(c3nc4ccc(F)cc4s3)CC2)c1
32 | inactive | NS(=O)(=O)c1cccc(C(=O)N2CCN(c3nc4ccc(F)cc4s3)CC2)c1
33 | inactive | O=C(c1ccc(C(F)(F)F)o1)N1CCN(c2nc3ccc(F)cc3s2)CC1
34 | inactive | NS(=O)(=O)c1cccc(C(=O)Nc2ccccc2N2CCOCC2)c1
35 | inactive | NS(=O)(=O)c1ccc(C(=O)N2CCN(c3nc4ccc(F)cc4s3)CC2)o1
36 | inactive | CS(=O)(=O)c1cccc(C(=O)Nc2ccccc2N2CCOCC2)c1
37 | inactive | CN(C)Cc1cccc(C(=O)N2CCN(c3nc4ccc(F)cc4s3)CC2)c1
38 | inactive | O=C(Nc1ccccc1N1CCOCC1)c1cccc(Cl)n1
39 | inactive | O=C(Nc1ccccc1N1CCOCC1)c1cc(C(F)(F)F)ccn1
40 | inactive | CN(C)Cc1ccc(C(=O)N2CCN(c3nc4ccc(F)cc4s3)CC2)o1

Row | response (vacuolar pH increase) | SMILES
41 | inactive | O=C(Nc1ccccc1N1CCOCC1)c1cccc(Br)n1
42 | inactive | Nc1ncc(C(=O)Nc2ccccc2N2CCOCC2)o1
43 | inactive | O=C(Nc1ccccc1N1CCOCC1)c1ccc(Br)o1
44 | inactive | Cc1ccc(C(=O)N2CCN(c3nc4ccc(F)cc4s3)CC2)o1
45 | inactive | O=C(c1cc(CO)ccn1)N1CCN(c2nc3ccc(F)cc3s2)CC1
46 | inactive | O=C(Nc1ccccc1N1CCOCC1)c1ccc(-c2ccccc2)o1
47 | inactive | O=C(Nc1ccccc1N1CCOCC1)c1cncc(Cl)n1
48 | inactive | NC(=O)c1ccc(C(=O)N2CCN(c3nc4ccc(F)cc4s3)CC2)o1
49 | inactive | CS(=O)(=O)c1ccc(C(=O)Nc2ccccc2N2CCOCC2)o1
50 | inactive | Nc1cncc(C(=O)Nc2ccccc2N2CCOCC2)n1
51 | inactive | N#Cc1cccc(C(=O)N2CCN(c3nc4ccc(F)cc4s3)CC2)c1
52 | inactive | O=C(Nc1ccccc1N1CCOCC1)c1cccc(C(F)(F)F)n1
53 | inactive | Cc1ccc(C(=O)Nc2ccccc2N2CCOCC2)o1
54 | inactive | O=C(c1cc(Cl)ccn1)N1CCN(c2nc3ccc(F)cc3s2)CC1
55 | inactive | Nc1cncc(C(=O)N2CCN(c3nc4ccc(F)cc4s3)CC2)n1
56 | inactive | Cc1ccnc(C(=O)N2CCN(c3nc4ccc(F)cc4s3)CC2)c1
57 | inactive | CS(=O)(=O)c1ccc(C(=O)N2CCN(c3nc4ccc(F)cc4s3)CC2)o1
58 | inactive | N#Cc1ccnc(C(=O)N2CCN(c3nc4ccc(F)cc4s3)CC2)c1

Biological target: S. cerevisiae vacuolar pH, BCECF fluorescence
Experiment: as above
Settings: not given

Row | EC50 | SMILES
59 | 60.5 µM | O=C(c1cccc(C(F)(F)F)n1)N1CCN(c2nc3ccc(F)cc3s2)CC1
60 | 31.8 µM | O=C(c1cccc(C(F)(F)F)c1)N1CCN(c2nc3ccc(F)cc3s2)CC1
61 | 37.4 µM | O=C(c1cccc(Cl)n1)N1CCN(c2nc3ccc(F)cc3s2)CC1
